In patent US8298781B2, “Compositions and methods for characterizing and regulating olfactory sensation” (Duke University, priority 2007, dated 2012):

Experiments:
[1] = test system: cortisol levels; details: Wyart et al. 2007; cited from earlier work
[2] = test system: human subjects; assay: Human olfactory psychophysics: odor profiling with 146 descriptors; format: in vivo; details: androstenone 1/10,000
Protocol: Human olfactory psychophysics. All human subjects gave informed consent to participate in this study and were tested in a well-ventilated room. Normal human subjects (n=412; 218 female, 194 male; median age 34, age range 19-75) were pre-screened to exclude pregnant women and those with medical conditions causing general impairment of the sense of smell. All subjects completed two replicates of the test separated by at least 4 days. Odors were presented in amber vials as previously described (see, e.g., Keller, A., et al., Nat Neurosci 7, 337-338 (2004); herein incorporated by reference in its entirety) using bar-coded symbols to ensure that subjects were blind to the identity of all odors. The intensity and valence of 66 odors at two concentrations (“high” and “low”) and two solvents was rated using a 7-point scale. Thresholds were calculated using the single staircase method with seven reversals (see, e.g., Doty, R. L., et al., Chem Senses 20, 645-656 (1995); Doty, R. L. & Laing, D. G. in Handbook of Olfaction and Gustation (ed. Doty, R. L.) pp. 203-228 (Marcel Dekker, Inc., New York, 2003); each of which are herein incorporated by reference in their entireties). Threshold tests included both steroids as binary dilutions from […] (binary dilution 6) to 1: 134,217,728 (binary dilution 27). […]
Assigning descriptors to odors. Subjects assessed the quality of six odors using an odor profiling method that has shown to produce stable profiles of odorants. […] Odor profiling typically took five minutes per odorant and was performed as a computer-controlled selftest in which the subject's responses were directly recorded. […] The descriptors used to describe the other four odors (vanillin, pentadecalactone, androstenone, and propylene glycol) were evaluated. […]

Compound	cortisol levels in women smelling the odor vs women not smelling it [1]	use of descriptor "sickening", OR7D4 RT/WM vs RT/RT subjects [2]	use of descriptor "vanilla", OR7D4 RT/WM vs RT/RT subjects [2]
C[C@@]12C=CC[C@H]1[C@@H]1CCC3=CC(=O)CC[C@]3(C)[C@H]1CC2 [androstadienone, androsta-4,16-dien-3-one]	maintained at higher levels	–	–
C[C@]12CCC(=O)C[C@@H]1CC[C@@H]1[C@@H]2CC[C@]2(C)C=CC[C@@H]12 [androstenone, 5α-androst-16-en-3-one]	–	less likely	more likely
